From patent US20100197765A1, “METHOD FOR PROMOTING THE EXPRESSION OF P53, AND P53 EXPRESSION PROMOTER FOR USE IN THE METHOD” (THE UNIVERSITY OF TOKUSHIMA, priority 2007, published 2010)

Assays:
HCT116 cells [1] = assay: p53 mRNA, vegf IresRNA and vegf mRNA in HCT116 cells exposed to genotoxic stress (Northern); format: cell-based, human
Procedure: HCT116 cells (parent cells) were exposed to genotoxic stress that upregulates the expression of p53 mRNA. […] Also, HCT116 cells were exposed to UV-B for 1 minute. Then, after placing them under non-exposed conditions for a predetermined time (6, 12 hours), the expressions were examined in the same manner as in the above.

p53-deleted cells HCT116 = assay: apoptosis (TUNEL) in p53-deleted HCT116 cells with vegf siRNA and 5-FU; format: cell-based, human; settings: p53-deleted cells HCT116, treatment with 5-FU
Procedure: Apoptotic cells were evaluated by a TUNEL staining method using in situ Cell Death Detection kit (Roche Diagnostic). […] The counting was performed with respect to at least 300 cells in one measurement.
Various types of cells were treated with 5-FU, which is an anticancer agent inducing apoptosis in a p53-dependent manner, and the sensitivity to apoptosis was analyzed. The vegf siRNA#1 vectors expressing siRNA#1, the vegf siRNA #2 vectors expressing siRNA #2, and the control siRNA vectors described above respectively were transfected into HCT 116 (parent cells) and p53-deleted cells HCT116. Then, the cells after 18 hours from the transfection was treated for 60 hours in the presence of […] of 5-FU (+) or in the absence of 5-FU (−). The proportion (%) of apoptosis positive cells in the thus-treated cells was calculated based on “Apoptotic evaluation 2” above (means±SD, n=4).

HCT116 cells [2] = assay: apoptosis of siRNA-expressing HCT116 cells treated with low-concentration anticancer agents, with or without rVEGF; format: cell-based, human; settings: HCT116 not expressing siRNA (NT) and control siRNA cells, low concentrations, 60 hours
Procedure: The recombinant vectors that express vegf siRNA#1 and #2 and the vectors that express control siRNA were transfected into HCT116 cells (parent cells, wild-type p53). As a control cell, an HCT116 cell not transfected with a recombinant vector that expresses siRNA was used. These four types of cells were treated in the presence or absence of various anticancer agents having the final concentrations as described below for 60 hours. As the anticancer agent, etoposide (20 μmol/L), doxorubicin (170 nmol/L), and 5-FU (40 μmol/L) were used. With respect to the treated cells, apoptosis (%) was quantified in the same manner as in Example A1.
UTR RNA and function of VEGF protein. With the aim of clarifying an effect of blocking the function of vegf 5′ UTR RNA, recombinant VEGF protein (R&D systems, hereinafter referred to as “rVEGF”) was added to a culture supernatant of cells transfected with vegf siRNA in order to add VEGF protein that is decreased due to siRNA. […] Therefore, in Example A9, 1 ng/ml of rVEGF protein was added to the four types of cells. […] Then, these transfection cells were treated with anticancer agents in the same manner as described above.

[3] = test system: noxa mRNA, puma mRNA, and p21 mRNA; assay: expression of mRNAs induced in p53 pathways in HepG2 cells (Northern); format: cell-based, human; settings: control siRNA HepG2 cells, 5-FU 30 μmol/L, 16 hours
Procedure: In the same manner, HepG2 cells transfected with each type of the vectors were treated for 16 hours in the presence of 5-FU (30 μmol/L) (+) or the absence of 5-FU (−). With respect to the treated cells, expression of noxa mRNA, puma mRNA, and p21 mRNA induced in p53 pathways was analyzed by the Northern blotting. […] In FIG. 1D, the first row from the top indicates expression of noxa mRNA, the second row indicates expression of puma mRNA, the third row indicates expression of p21 mRNA, and the fourth row indicates expression of gapdh mRNA. Definitions of the lanes in FIG. 1D are the same as those of FIG. 1C.

HepG2 cells = assay: apoptosis (Apoptotic evaluation 1) of siRNA-expressing HepG2 cells treated with 5-FU; format: cell-based, human; settings: control siRNA-expressing HepG2 cells treated with 5-FU
Procedure: Objective cells were treated with various anticancer agents, and then incubated with trypsin/EDTA to prepare cell suspensions. The cell suspensions were centrifuged and supernatants thereof were removed. Thereafter, the cell suspensions each were immobilized and stained with a solution of formaldehyde of 3.7%, Nonidet P40 of 0.5%, and 10 μg/mL of Hoechst33258 (Invitrogen) in PBS. […] The counting was performed with respect to at least 300 cells in one measurement.
Each type of the recombinant vectors was transfected into HepG2 cells for 18 hours in the same manner as in the above-described item (1). Each type of the transfection cells was treated with an anticancer agent “5-FU” having a predetermined concentration (0, 10, 30 μmol/L) for 60 hours. Then, the apoptosis (%) of the treated cells was examined according to “Apoptosis evaluation 1”. FIG. 1B is a graph showing apoptosis (%) in each type of the cells treated with 5-FU having a predetermined concentration (means±SD, n=3).

p53 mRNA [4] = assay: cell-free protein synthesis reaction after heteroduplex formation; format: biochemical, human; settings: cell-free protein synthesis with p53 mRNA/5′ UTR RNA heteroduplex, cycloheximide added
Procedure: (5) Detection of p53 mRNA and its Degradation Product In the same manner as in the above-described item (3), mutant 5′ UTR RNA or 5′ UTR was incubated with p53 mRNA. As described above, mutant 5′ UTR RNA and p53 mRNA form a heteroduplex by incubation. Then, using the treated RNA samples, in the presence or absence of cycloheximide (final concentration of […]) or in the presence of purified ribosome prepared by a sucrose density-gradient centrifugation method, a cell-free protein synthesis reaction was performed. The cell-free protein synthesis was carried out by making reference to the research paper (Huez, I. et al. Mol. Cell. Biol. 18, 6178-6190 (1998)) or using Wako PURE system (trade name, Wako Chemical) following the specifications thereof.
In the same manner as in the above-described item (4), RNAs each were incubated in the combination shown in FIG. 8E, and cell-free protein synthesis was carried out. In this state, [^35S] methionine coexisted in a reaction solution of cell-free protein synthesis. Then, p53 protein synthesized in vitro was separated by SDS-PAGE using a polyacrylamide gel of 12%, and a dried gel was subjected to an autoradiography. FIG. 8E is an autoradiography showing synthesis of p53 protein in a reaction solution of cell-free protein in the presence of vegf 5′ UTR. […]

p53 mRNA [5] = assay: degradation/silencing of exogenous p53 mRNA in H1299 cells (Northern); format: cell-based, human; settings: H1299, cycloheximide 50 μg/ml, 16 hours
Procedure: In the same manner as in Example A4, the p53 expression vectors and each type of the recombinant plasmid vectors, pVC and pVCmut5′, or empty vectors (mock) were cotransfected into H1299 cells (p53 null), and the cells were cultured for 12 hours. RNA was collected from each type of the transfection cells, the RNA was separated by a denatured agarose gel electrophoresis, and exogenous p53 mRNA and its degradation product were detected by the Northern blotting. FIG. 7A is a photograph showing exogenous p53 mRNA and its degradation product in each type of the cells. In FIG. 7A, the lane 1 “mock” indicates the result obtained regarding the cells transfected with the empty vectors, the lane 2 “VEGF mut5′” indicates the result obtained regarding the cells transfected with pVCmut5′, and the lane 3 “VEGF 5” indicates the result obtained regarding the cells transfected with pVC. The size (nt) of an RNA marker (Ambion, Inc.) was shown on the left of the photograph of blotting.
First, the p53 expression vectors and each type of the recombinant plasmid vectors, pVC and pVCmut5′, were cotransfected into H1299 cells (p53 null), and the cells were cultured for 8 hours. […] With respect to the treated cells, the expression level of p53 mRNA was analyzed by the Northern blotting. […]

vegf IresRNA = assay: p53 mRNA in p53-deleted HCT116 cotransfected with p53 vector, vegf IresRNA vector and decoy or antisense LNA-DNA (Northern); format: cell-based, human
[6] = test system: HCT116 cells (wild-type p53); assay: survival rate of HCT116 cells transfected with decoy or antisense LNA-DNA after 5-FU; format: cell-based, human; settings: after 5-FU (40 μmol/L)
Procedure: The wild-type and mutant-type p53 decoy LNA-DNA were transfected into HCT116 cells (wild-type p53). The cells transfected with the decoys were cultured in McCoy's 5A medium containing 10% fetal bovine serum and 100 μg/ml (100 units/ml) of streptomycin, and the relative value of the survival rate (%) was calculated according to “Apoptosis evaluation 2”. The relative value was obtained with the number of viable cells of 5-FU untreated cells being considered as 100%. In addition, the survival rate of HCT cells (p53) not transfected with the decoys also was calculated in the same manner as described above.
The wild-type and mutant-type vegf antisenses were transfected into HCT116 cells (wild-type p53). With respect to the cells transfected with the antisenses, the relative value of the survival rate (%) was calculated in the same manner as in Example C4. The relative value was obtained with the number of viable cells of 5-FU untreated cells being considered as 100%. In addition, the survival rate of HCT cells (wild-type p53) not transfected with the vegf antisenses was also calculated in the same manner as described above.

[7] = vegf antisense LNA-DNA cotransfected with vegf IresRNA and p53 expression vectors

## O=c1[nH]cc(F)c(=O)[nH]1 [5-FU, 5-fluorouracil, reference compound]
HCT116 cells [1]; HCT116, 5-FU 80 μmol/L or MMC 6 μg/ml, 0, 6, 12 hours
  vegf IresRNA and vegf mRNA expression: increased markedly
HCT116 cells [1]; HCT116, 5-FU 80 μmol/L, MMC 6 μg/ml or cisplatin 5 μg/ml, 0, 6, 12 hours
  expression of the p53 mRNA: suppressed
p53-deleted cells HCT116
  proportion of apoptosis: increased slightly
HCT116 cells [2]
  significant enhancement of apoptosis: not induced
[3]
  expression of p21 mRNA: slightly induced
HepG2 cells
  proportion of apoptosis: slightly increased

## C[C@@H]1C[C@@H]([C@H](O)CC2CC(=O)NC(=O)C2)C(=O)[C@@H](C)C1 [cycloheximide]
p53 mRNA [4]
  effect on partial degradation of p53 mRNA: completely blocked
p53 mRNA [5]
  effect on silencing of p53 mRNA due to vegf 5′ UTR: marked inhibition of silencing

## COc1cccc2c1C(=O)c1c(O)c3c(c(O)c1C2=O)C[C@@](O)(C(=O)CO)C[C@@H]3O[C@H]1C[C@H](N)[C@H](O)[C@H](C)O1 [doxorubicin, reference compound]
HCT116 cells [2]
  significant enhancement of apoptosis: not induced

## COc1cc([C@@H]2c3cc4c(cc3[C@@H](O[C@@H]3O[C@@H]5CO[C@@H](C)O[C@H]5[C@H](O)[C@H]3O)[C@H]3COC(=O)[C@H]23)OCO4)cc(OC)c1O [etoposide, reference compound]
HCT116 cells [2]
  significant enhancement of apoptosis: not induced

## mutant-type p53 decoy: LNA-DNA of the p53 decoy sequence introduced with mutation, SEQ ID NO: 94, 5′-cccGCcCACCcGGctgGTcca-3′ (DNA CCCGCCCACCCGGCTGGTCCA; LNA-DNA mixmer, LNA positions not given here)
Vegf IresRNA; p53 decoy LNA-DNA cotransfected with vegf IresRNA and p53 expression vectors
  expression amount of p53 mRNA: small

## mutant-type vegf antisense: antisense LNA-DNA having the sequence introduced with mutation, SEQ ID NO: 95, 5′-cccGCcCGggTcGTcCgcAccA-3′ (antisense CCCGCCCGGGTCGTCCGCACCA; LNA-DNA mixmer, LNA positions not given here)
Vegf IresRNA; [7]
  expression amount of p53 mRNA: small

## wild-type p53 decoy: LNA-DNA corresponding to a sequence from base 462 to base 482 of p53 mRNA, SEQ ID NO: 93, 5′-ccccgcgtggcccctgcacca-3′ (DNA CCCCGCGTGGCCCCTGCACCA; LNA-DNA mixmer, LNA positions not given here)
[6]; p53 decoy, vs no decoy and mutant-type decoy
  survival rate of cells: decreased

## wild-type vegf antisense: antisense LNA-DNA complementary to bases 693 to 714 of vegf IresRNA, SEQ ID NO: 74, 5′-ccccgcgcggaccacggctcct-3′ (antisense CCCCGCGCGGACCACGGCTCCT; LNA-DNA chimera, LNA positions not given here)
[6]; vegf antisense, vs cells (none) not transfected
  survival rate of cells: markedly decreased
Vegf IresRNA; [7]
  expression amount of p53 mRNA: marked expression amount
